Converted amounts (≈) assume the structure as drawn. Where two headings read alike, the source gives them in different places.
What was measured:
[1] = Determination of kinetic solubility; assay type: physicochemical; settings: PBS, aqueous buffer, kinetic from dmso stock, shaking at 25° C. for 2 hours
Experimental: An aliquot of 30 μL stock solution (10 mM) was placed in order into their proper 96-well rack. 970 μL of PBS was added into each vial of the cap-less solubility sample plate. The assay was performed in duplicate. In each vial, a stir stick was added and sealed with a molded PTFE/Silicone plug. […] Plugs were removed after 2 hours and the stir sticks were removed using a big magnet. Then the samples were transferred from the solubility sample plate into the filter plate. All the samples were filtered using the vacuum manifold. An aliquot of 5 μL filtrate was mixed with 5 μL DMSO and 490 μL of a mixture of H2O and acetonitrile (v:v, 1:1) containing internal standard. A certain proportion of ultrapure water was used to dilute according to the peak shape. The dilution factor was changed according to the solubility values and the LC-MS/MS signals.
An aliquot of 6 μL stock solution (10 mM in DMSO) was transferred from standard (STD) stock plate into a new plate, and then 194 μL of DMSO was added to get a STD working solution of 300 μM. Then 5 μL of 300 μM working solution was mixed with 5 μL of DMSO and 490 μL of a mixture of H2O and acetonitrile (v:v, 1:1) containing internal standard and the final STD concentration was 3 μM. The STD concentration were changed according to the LC-MS/MS signals.
The sample plate was put into the autosampler and the test compound concentration was determined by LC-MS/MS.

NCI-H1048 cells = assay: NCI-H1048 cell proliferation assay (CTG assay); assay type: cell-based; settings: Homo sapiens, 120 hours, read-out: CTG cellular assay_H1048: IC50
How it was run: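 NCI-H1048 small cell lung cancer cells (RPMI-1640, 10% FBS) were exposed to 10-point half-log compound dilutions from 10 μM to 0.316 nM for 120 h at 37° C., 5% CO2. Viability was read by CellTiter-Glo luminescence and normalized to DMSO as percent of control. EC50 and DC50 were fitted with a four-parameter logistic model.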

HiBiT tagged Wee1 = HiBiT tagged Wee1 (Homo sapiens, UniProt P30291); assay: Wee1 protein degradation assay (HiBiT assay); assay type: cell-based; settings: engineered HT-1080 cells, 20 hours; for Dmax: maximum percentage of Wee1 degradation, read-out: HiBiT Wee1: Dmax
HiBiT tagged Wee1, sequence (P30291 whole entry): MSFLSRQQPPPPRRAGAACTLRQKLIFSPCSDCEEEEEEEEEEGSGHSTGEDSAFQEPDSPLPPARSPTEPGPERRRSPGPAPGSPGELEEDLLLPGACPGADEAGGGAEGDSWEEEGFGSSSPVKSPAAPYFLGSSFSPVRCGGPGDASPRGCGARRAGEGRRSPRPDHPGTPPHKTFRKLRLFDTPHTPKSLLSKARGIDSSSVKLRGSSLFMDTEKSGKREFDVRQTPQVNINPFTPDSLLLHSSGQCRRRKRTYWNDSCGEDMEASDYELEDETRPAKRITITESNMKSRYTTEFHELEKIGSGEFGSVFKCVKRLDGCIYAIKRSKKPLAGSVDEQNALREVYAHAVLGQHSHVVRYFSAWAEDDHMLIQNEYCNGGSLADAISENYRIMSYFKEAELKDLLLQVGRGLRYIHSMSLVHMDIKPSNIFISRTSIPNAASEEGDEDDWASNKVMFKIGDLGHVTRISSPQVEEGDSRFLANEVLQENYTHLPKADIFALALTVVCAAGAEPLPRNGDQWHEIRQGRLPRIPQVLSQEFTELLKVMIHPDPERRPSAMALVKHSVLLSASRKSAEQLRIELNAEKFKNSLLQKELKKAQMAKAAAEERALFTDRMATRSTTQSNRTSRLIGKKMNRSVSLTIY

[2] = Pharmacokinetic study in mice (IV and PO); assay type: in vivo; settings: male CD1 mice; for F: PO (10 mg/kg) vs IV (2 mg/kg); for AUC(0-inf) / clearance / half-life / Cmax: mouse, plasma; for half-life: read-out: T½ (converted)
Experimental: Objective: the objective of this study was to determine the pharmacokinetics of test compound following intravenous (IV) and oral (PO) administration to male CD1 mice.
Materials: Male CD1 mouse (20-30 g, 6-8 weeks, Zhejiang Vital River Laboratory Animal Technology Co., Ltd.).
The CD1 mice were administered with the test article intravenously via tail vein at 2 mg/kg or orally at 10 mg/kg. The animals had free access to food and water. After dose administration, blood was collected from the dorsal metatarsal vein at 5 min (0.0833 h, IV only), 15 min (0.25 h), 30 min (0.5 h), 60 min (1 h), 2 h, 4 h, 6 h, 8 h and 24 h. Blood samples were placed in an anticoagulant tube with EDTA-K2, mixed adequately and centrifuged at 4° C., 4000 g for 5 minutes to get the plasma. The plasma samples were stored at −75±15° C. until analyzed by LC-MS/MS. The PK parameters were calculated using non-compartmental model by Phoenix WinNonlin 6.1 (Linear/log trapezoidal).

[3] = Permeability study in MDCKII cells (bidirectional A to B and B to A); assay type: in vitro ADME, Canine; settings: dog, MDCK; for efflux ratio at 120 min, 1 μM: pH 7.4; for Papp A→B at 120 min, 1 μM / Papp B→A at 120 min, 1 μM: pH 7.4, 120 minutes; for Papp A→B at 120 min, 1 μM: apical to basolateral; for Papp B→A at 120 min, 1 μM: basolateral to apical
Experimental: MDCKII (Madin-Darby Canine Kidney cell line, wild type) cell was obtained from the Netherlands Cancer Institute, which was used for P-gp substrates or inhibitors screening and predicting the permeability of compounds with high efflux barriers such as duodenum, blood-brain barrier, hepatocyte nucleus and renal unit. The MDCKII cells with 10 to 22 passages were used for the permeability investigation.
MDCKII cells were cultured using Minimum Essential Media (MEM) at 37° C., 5% CO2 and 95% relative humidity. The cells were seeded in Transwell plate with 5.45×10^5 cells/cm^2. Then the cells were incubated in CO2 Incubator for 4-7 days for transport studies.
The complete medium was prepared by adding 10% FBS (fetal bovine serum) and 1% glutamax-1 to 500 ml MEM.
The dose concentrations of test compounds and control compounds were 1 μM. The bidirectional (A to B and B to A) permeability was evaluated. All incubations are performed in duplicate.
The regents were pre-incubated at 37±1° C. for 30 minutes. To determine the transport rate from apical to basolateral direction, 125 μL working solution (1 μM) was added to the Transwell insert (apical compartment), and 50 μL sample was immediately transferred from the apical compartment to a new 96-well plate as the initial donor sample (A-B) and mixed with 200 μL of acetonitrile or methanol containing IS. And 235 μL HBSS (10 mM HEPES, pH 7.4) was added to the receiver plate (basolateral compartment). To determine the transport rate from basolateral to apical direction, 285 μL working solution (1 μM) was added to the receiver plate (basolateral compartment), and 50 μL sample was immediately transferred from the basolateral compartment to a new 96-well plate as the initial donor sample (B-A) and mixed with 200 μL of acetonitrile or methanol containing IS. And 75 μL HBSS (10 mM HEPES, pH 7.4) was added to the Transwell insert (apical compartment). Then the plate was incubated at […] with 5% CO2 and 95% relative humidity for 120 minutes.
At the end of incubation, 50 μL samples from donor and receiver sides were transferred into a new 96-well plate. 200 μL of ice-cold acetonitrile or methanol containing appropriate internal standards (IS) was mixed with the samples. After vortex for 10 minutes, the samples are centrifuged at 3220 g for 40 minutes. An aliquot of 100 μL of the supernatant was mixed with appropriate volume of ultra-pure water and was analyzed by LC-MS/MS. All incubations are performed in duplicate.
The integrity of MDCKII cells were checked by Lucifer Yellow Rejection Assay after transport assay. The plate(s) were incubated with Lucifer Yellow solution at 37° C. for 30 minutes. The Lucifer Yellow fluorescence (to monitor monolayer integrity) was measured in a fluorescence plate reader at 480 nm excitation and 530 nm emission.
Test and reference compounds (metoprolol and digoxin) were semi-quantitatively analyzed, and the peak area ratio of the analyte and the internal standard was used to evaluate the concentration of the compounds.

[4] = pH 3.0, read-out: Kinetic solubility (μM) pH 3.0
[5] = pH 5.0, read-out: Kinetic solubility (μM) pH 5.0

SMILES	solubility kinetic at 2 h [1, 4]	solubility kinetic at 2 h [1, 5]	IC50 (NCI-H1048 cells)	DC50 (HiBiT tagged Wee1)	Dmax (HiBiT tagged Wee1)	F [2]	AUC(0-inf) ([2]; IV (2 mg/kg))	clearance ([2]; IV (2 mg/kg))	half-life ([2]; IV (2 mg/kg))	AUC(0-inf) ([2]; PO (10 mg/kg))	Cmax ([2]; PO (10 mg/kg))	half-life ([2]; PO (10 mg/kg))	efflux ratio at 120 min, 1 μM [3]	Papp A→B at 120 min, 1 μM [3]	Papp B→A at 120 min, 1 μM [3]
C=CCn1c(=O)c2cnc(Nc3ccc(N4CCC(CN5CCC(c6cccc7c6n(C)c(=O)n7C6CCC(=O)NC6=O)CC5)CC4)cc3)nc2n1-c1cccc(C(C)(C)O)n1 (centres unmarked) [Compound 55]	194 µM (≈ 163 µg/mL)	55.7 µM (≈ 46.8 µg/mL)	≤ 25 nM	< 100 nM	50 to 75%	38.9%	6980 ng·h/mL	4.78 mL/min/kg	5.7 h	13600 ng·h/mL	902 ng/mL	5.2 h	2.88	2.48 ×10⁻⁶ cm/s	7.09 ×10⁻⁶ cm/s
C=CCn1c(=O)c2cnc(Nc3ccc(N4CCN(CC5CCN(c6ccc(NC7CCC(=O)NC7=O)cc6F)CC5)CC4)cc3)nc2n1-c1ccc2c(n1)[C@@](O)(CC)CC2 (mixture of isomers) [Compound 110]	233 µM	132 µM	≤ 25 nM	< 100 nM	> 75%	106%	10900 ng·h/mL	3.24 mL/min/kg	3.03 h	53200 ng·h/mL	4210 ng/mL	2.95 h	0.89	2.37 ×10⁻⁶ cm/s	2.11 ×10⁻⁶ cm/s
C=CCn1c(=O)c2cnc(Nc3ccc(C4CCN(CC5CCN(c6cccc7c6n(C)c(=O)n7C6CCC(=O)NC6=O)CC5)CC4)cc3)nc2n1-c1cccc(C(C)(C)O)n1 (centres unmarked) [Compound 66]	252 µM (≈ 212 µg/mL)	148 µM (≈ 124 µg/mL)	≤ 25 nM	< 100 nM	50 to 75%	23.6%	26700 ng·h/mL	1.25 mL/min/kg	7 h	31600 ng·h/mL	1880 ng/mL	7.2 h			
C=CCn1c(=O)c2cnc(Nc3ccc(N4CCN(CC5CCN(c6cccc7c6n(C)c(=O)n7C6CCC(=O)NC6=O)CC5)CC4)cc3)nc2n1-c1cccc(C(C)(C)O)n1 (centres unmarked) [Compound 65]			≤ 25 nM	< 100 nM	50 to 75%								0.94	1.35 ×10⁻⁶ cm/s	1.27 ×10⁻⁶ cm/s
C=CCn1c(=O)c2cnc(Nc3ccc(N4CCC(CN(C)C5CCN(c6cccc7c6n(C)c(=O)n7C6CCC(=O)NC6=O)CC5)CC4)cc3)nc2n1-c1cccc(C(C)(C)O)n1 (centres unmarked) [Compound 61]	299 µM (≈ 260 µg/mL)	203 µM (≈ 176 µg/mL)	≤ 25 nM	< 100 nM	50 to 75%										

Reference: US20250049798A1, “WEE1 PROTEIN KINASE DEGRADATION AGENT AND USE THEREOF” (HANGZHOU GLUBIO PHARMACEUTICAL CO. LTD., priority 2021, published 2025)
